Experimental data published in US8133849B2, “Herbicidal compounds” (Syngenta Limited, priority 2007, dated 2012).

Experiments:
Assay type in all cases: in vivo
test plants [1] = assay: Example B2 herbicidal action, post-emergence, pots in glasshouse, damage score 0-10 (10=total damage to plant; 0=no damage to plant); conditions: Example B2 protocol, after 13 days, result in words
Method: Seeds of a variety of test species were sown in standard soil in pots. After 8 days cultivation (post-emergence) under controlled conditions in a glasshouse (at 24/16° C., day/night; 14 hours light; 65% humidity), the plants were sprayed with an aqueous spray solution derived from the formulation of the technical active ingredient in acetone/water (50:50) solution containing 0.5% Tween 20 (polyoxyethelyene sorbitan monolaurate, CAS RN 9005-64-5). The test plants were then grown in a glasshouse under controlled conditions in a glasshouse (at 24/16° C., day/night; 14 hours light; 65% humidity) and watered twice daily. After 13 days, the test was evaluated (10=total damage to plant; 0=no damage to plant).

test plants [2] = assay: Example B1 herbicidal action, post-emergence, all test species together; conditions: Example B1 protocol, 1000 g/ha, after 9 days, result in words
Method: (§1) Seeds of a variety of test species were sown in sterilized standard soil in seed trays each having 96 cells. After cultivation for 8 to 9 days cultivation (post-emergence) under controlled conditions in a climatic chamber (cultivation at 23/17° C., day/night; 13 hours light; 50-60% humidity), the plants were treated with an aqueous spray solution of 1000 mg/l of the active ingredient dissolved in 10% DMSO (dimethyl sulfoxide, CAS RN 67-68-5) as a solvent, equivalent to 1000 g/ha. The plants were grown in the climatic chamber after application at (24/19° C., day/night; 13 hours light; 50-60% humidity) and watered twice daily. After 9 days until the test was evaluated (10=total damage to plant, 0=no damage to plant)

Chenopodium album = assay: Example B3 herbicidal action, post-emergence, small pots in glasshouse, damage score 0-10; conditions: 1000 g/ha, evaluated after 13 days, 10=total damage to plant, 0=no damage to plant
Method: (§2) Seeds of a variety of test species were sown in sterilized compost in small pots. After cultivation for seven days (post-emergence) in controlled conditions in the glasshouse (at 24/16° C., day/night; 14 hours light; 65% humidity) the plants were sprayed with 1 mg of the active ingredient, formulated in 2.5 ml acetone/water (50:50) solution, which is equivalent to 1000 g/ha. Once the foliage was dry, the pots were kept in the glasshouse (at 24/16° C., day/night; 14 hours light; 65% humidity), and were watered twice daily. After 13 days the test was evaluated (10=total damage to plant, 0=no damage to plant).

Alopecurus myosuroides = assay: as above; conditions: 1000 g/ha, evaluated after 13 days, 10=total damage to plant, 0=no damage to plant
Method: as §2

Nasturtium officinale = assay: Example B1 herbicidal action, post-emergence, seed trays in climatic chamber, damage score 0-10; conditions: 1000 g/ha, evaluated after 9 days, 10=total damage to plant, 0=no damage to plant
Method: as §1

Amaranthus retroflexus = assay: as above; conditions: 1000 g/ha, evaluated after 9 days, 10=total damage to plant, 0=no damage to plant
Method: as §1

Solanum nigrum = assay: as above; conditions: 1000 g/ha, evaluated after 9 days, 10=total damage to plant, 0=no damage to plant
Method: as §1

Stellaria media = assay: as above; conditions: 1000 g/ha, evaluated after 9 days, 10=total damage to plant, 0=no damage to plant
Method: as §1

SMILES | damage to the test plants (test plants [1]) | damage to plant, NAAOF (Nasturtium officinale) | damage to plant, AMARE (Amaranthus retroflexus) | damage to plant, SOLNI (Solanum nigrum) | damage to plant, STEME (Stellaria media) | other results
CCN1c2nccnc2C(OC(=O)C(C)(C)C)=C(c2ccc(Cl)c(Cl)c2)S1(=O)=O [Compound C10] | little or no damage |  |  |  |  | 
CC(C)(C)C(=O)OC1=C(c2ccccc2[N+](=O)[O-])S(=O)(=O)N(CC(F)F)c2nccnc21 [Compound C66] | little or no damage |  |  |  |  | 
CCOC(=O)c1ccc(C(F)(F)F)nc1C1=C(O)c2nccnc2N(CCC(F)F)S1(=O)=O [Compound D58, 2-[1-(3,3-difluoro-propyl)-4-hydroxy-2,2-dioxo-1,2-dihydro-2-λ-6-thia-1,5,8-triaza-naphthalen-3-yl]-6-trifluoromethyl-nicotinic acid ethyl ester] | little or no damage |  |  |  |  | 
CC(C)C(=O)OC1=C(c2ccc(Cl)cc2Cl)S(=O)(=O)Nc2nccnc21 [Compound B2] |  |  |  |  |  | damage to the test plants (test plants [2]): little or no damage
CC(C)(C)C(=O)OC1=C(c2ccc(Cl)cc2Cl)S(=O)(=O)N(CC(F)F)c2nccnc21 [Compound C12, 2,2-dimethyl-propionic acid-3-(2,4-dichloro-phenyl)-1-(2,2-difluoroethyl)-2,2-dioxo-1,2-dihydro-2-λ-6-thia-1,5,8-triaza-naphthalen-4-yl ester] |  |  |  |  |  | damage to plant, CHEAL (Chenopodium album): 9; damage to plant, ALOMY (Alopecurus myosuroides): 6
COC1=C(c2ccc(Cl)cc2Cl)S(=O)(=O)N(C)c2nccnc21 [Compound C3, 3-(2,4-dichloro-phenyl)-4-methoxy-1-methyl-1H-2-thia-1,5,8-triazanaphthalen-2,2-dioxide] |  | 2 | 1 | 3 | 2 | 
CC(C)(C)C(=O)OC1=C(c2ccc(Cl)cc2Cl)S(=O)(=O)Nc2nccnc21 [Compound B1] |  | 0 | 0 | 2 | 0 | 
CN1c2nccnc2C(OC(=O)C(C)(C)C)=C(c2cc3ccccc3nc2Cl)S1(=O)=O [Compound C41] |  | 8 | 0 | 0 | 4 | 
CCN1c2nccnc2C(OC(=O)C(C)(C)C)=C(c2cccc(C(F)(F)F)c2)S1(=O)=O [Compound C14] | little or no damage |  |  |  |  | 
CC(C)C(=O)OC1=C(c2c(F)ccc(F)c2Cl)S(=O)(=O)N(C)c2nccnc21 [Compound C9] |  | 6 | 7 | 4 | 6 | 
C#CCN1c2nccnc2C(O)=C(c2ccccc2[N+](=O)[O-])S1(=O)=O [Compound D40, 3-(2-nitro-phenyl)-2,2-dioxo-1-prop-2-ynyl-1,2-dihydro-2-λ-6-thia-1,5,8-triaza-naphthalen-4-ol] | little or no damage |  |  |  |  | 
CC(C)(C)C(=O)OC1=C(c2ccc(Cl)c(Cl)c2)S(=O)(=O)Nc2nccnc21 [Compound B4] |  |  |  |  |  | damage to the test plants (test plants [2]): little or no damage
CCN1c2nccnc2C(OC(=O)C(C)(C)C)=C(c2c(F)ccc(F)c2Cl)S1(=O)=O [Compound C7] |  | 8 | 3 | 7 | 8 | 
CN1c2nccnc2C(OC(=O)C(C)(C)C)=C(c2ccc(Cl)c(Cl)c2)S1(=O)=O [Compound C8] |  | 0 | 2 | 7 | 0 | 
